Laboratory results published in patent US10883963B2, “Electrochemical measurement using phenylenediamine derivative” (SEIKAGAKU CORPORATION, priority 2016, dated 2021).
Read-outs that look alike come from different tables or passages of the source.

What was measured:
[1] = Evaluation of quantitative performance: cyclic voltammetry and chronoamperometry of substrate / free molecule mixed solutions; type: physicochemical; conditions: mixed solution of substrate and free molecule, 0.1 M HEPES pH 7.8, vs. Ag/AgCl
From the text: As a result of performing a cyclic voltammetric measurement in which the mixture ratio of a substrate and free molecule (labeling substance) was varied in stages, in a voltammogram of a mixed solution of LGR-pAP and pAP, two oxidation peaks at 0.15 V and 0.49 V were confirmed. From individual voltammograms of a substrate molecule and a free molecule, the peak near 0.49 V is considered to be derived from oxidation of LGR-pAP, and the peak near 0.15 V is considered to be derived from oxidation of pAP. Similarly, from a voltammogram of a mixed solution of LGR-DMPD and DMPD, an oxidation peak derived from LGR-DMPD was confirmed near 0.45V, and an oxidation peak derived from DMPD was confirmed near 0.19 V. Further, from a voltammogram of a mixed solution of LGR-MPDD and MPDD, an oxidation peak derived from LGR-MPDD was confirmed near 0.46 V, and an oxidation peak derived from MPDD was confirmed near 0.14 V. Further, when using any substrate, an oxidation peak current value of free molecules increased as the percentage of a free molecule increased. From these facts, it was considered that a concentration of free molecules in each mixed solution could be amperometrically quantified at a potential of 0.3 V vs. Ag/AgCl. Next, in each mixed solution, chronoamperometry was performed. […]
As an electrochemical measurement method, cyclic voltammetry and a potential step chronoamperometric method were used. […] In the cyclic voltammetric measurement, potential scanning was performed by setting an initial potential and a finish potential to 0 V, a first turnover potential to 0.4 V (0.6 V for LGR-pAP and LGR-DMPD, 0.7 V for LGR-MPDD), and a second turnover potential to −0.2 V, and the current was monitored. In the potential step chronoamperometric measurement, after 0.0 V was applied to the working electrode for 10 seconds, the potential was momentarily changed to 0.3 V, and the current was monitored for 35 seconds. […]

[2] = Stability of labeling substances and substrates in 0.1 M HEPES at 37° C., cyclic voltammetric measurement; type: physicochemical; conditions: for relative value of height of oxidation peak in voltammogram of free molecule (0 hours = 100%): 1.0 mM in 0.1 M HEPES pH 7.8, 37° C., light-shielded; for change of detected value in 2 hours after preparation: 0.1 M HEPES pH 7.8, 37° C.
Experimental: The labeling substances (pAP, MPDD, and DMPD) and the substrates for measurement (LGR-pAP, LGR-MPDD, LGR-DMPD) were dissolved into 0.1 M HEPES (pH 7.8) and prepared to be 1 mM, and were left to stand for 1 to 24 hours in an incubator at 37° C. Thereafter, a test was performed according to the following procedures.
As an electrochemical measurement method, cyclic voltammetry and a potential step chronoamperometric method were used. As a measuring device, a working electrode, a reference electrode, and a counter electrode, those described in <Measurement Conditions> below were used. In each measurement, the working electrode, the reference electrode, and the counter electrode were inserted in a solution, and respectively connected to connectors of a potentiostat for a working electrode, a reference electrode, and a counter electrode. After each measurement, the electrode surface of the working electrode was polished with […] polishing alumina, and cleaned with ultrapure water. In the cyclic voltammetric measurement, potential scanning was performed by setting an initial potential and a finish potential to 0 V, a first turnover potential to 0.4 V (0.6 V for LGR-pAP and LGR-DMPD, 0.7 V for LGR-MPDD), and a second turnover potential to −0.2 V, and the current was monitored. In the potential step chronoamperometric measurement, after 0.0 V was applied to the working electrode for 10 seconds, the potential was momentarily changed to 0.3 V, and the current was monitored for 35 seconds.
50 ml of test solutions (1.0 mM) of the respective substrates (LGR-pAP, LGR-MPDD, LGR-DMPD) and free molecules (pAP, MPDD, DMPD) were prepared by using 0.1 M HEPES (pH=7.8), put in a disposable 50 ml centrifuge tube (manufactured by IWAKI), and left to stand at 37° C. under light-shielded conditions. When a predetermined time (0.5 h, 1 h, 2 h, 4 h, and 24 h) elapsed, 5 ml was sampled from the test solution and subjected to cyclic voltammetric measurement. MPDD was measured when 6 hours and 8 hours elapsed as well. By using a test solution just after preparation, a measurement at a predetermined time of 0 hours was performed.

[3] = tested on: Limulus reagent Endospecy ES-24S; experiment: Limulus test (2): endotoxin measurement by voltammetric method using labeled substrates; type: biochemical; conditions: substrate for measurement 0.5 mM
Experimental: Limulus tests using the substrates for measurement acquired in <Reference Example 1> described above were performed, and measurements of endotoxin were performed by a voltammetric method. The test procedures are shown below.
The same conditions as those described in <Limulus Reaction> of <Example 2> described above were applied except that a cyclic voltammetric measurement was performed instead of the chronoamperometric measurement.
The same conditions as described in <Measurement Conditions> of <Example 1> above were applied.

[4] = tested on: Limulus reagent Endospecy ES-24S; conditions: FIG. 8 of Patent Literature 1; cited from earlier work
[5] = 1 mM; FIG. 4 of Patent Literature 1; cited from earlier work
[6] = 0 hours (just after preparation)

Nc1ccc(O)cc1 [pAP, P-aminophenol, reference compound]
oxidation peak potential in cyclic voltammogram [1]: ~0.15 V | relative value of height of oxidation peak in voltammogram of free molecule (0 hours = 100%) [2, 6]: 100.0% | relative value of height of oxidation peak in voltammogram of free molecule (0 hours = 100%) ([2]; 0.5 h): 94.2% | relative value of height of oxidation peak in voltammogram of free molecule (0 hours = 100%) ([2]; 1 h): 95.0% | relative value of height of oxidation peak in voltammogram of free molecule (0 hours = 100%) ([2]; 2 h): 83.0% | change of detected value in 2 hours after preparation [2]: showed a tendency to successively decrease

CNc1ccc(N)cc1 [MPDD, N-methyl-p-phenylenediamine]
Measured value B: maximum value of oxidation peak current value in Limulus test with substrate (labeling substance bonded to LGR) [3]: 0.60 μA | oxidation peak potential in cyclic voltammogram [1]: ~0.14 V | relative value of height of oxidation peak in voltammogram of free molecule (0 hours = 100%) [2, 6]: 100.0% | relative value of height of oxidation peak in voltammogram of free molecule (0 hours = 100%) ([2]; 0.5 h): 102.4% | relative value of height of oxidation peak in voltammogram of free molecule (0 hours = 100%) ([2]; 1 h): 102.3% | relative value of height of oxidation peak in voltammogram of free molecule (0 hours = 100%) ([2]; 2 h): 101.0% | change of detected value in 2 hours after preparation [2]: no decrease

COc1ccc(N)cc1 [pMA, para methoxyaniline]
Measured value B: maximum value of oxidation peak current value in Limulus test with substrate (labeling substance bonded to LGR) [4]: 0.28 μA | oxidation peak current value of labeling substance itself [5]: approximately 3.0 μA

CN(C)c1ccc(N)cc1 [DMPD, N, N-dimethyl-p-phenylenediamine]
Measured value B: maximum value of oxidation peak current value in Limulus test with substrate (labeling substance bonded to LGR) [3]: 0.31 μA | oxidation peak potential in cyclic voltammogram [1]: ~0.19 V | relative value of height of oxidation peak in voltammogram of free molecule (0 hours = 100%) [2, 6]: 100.0% | relative value of height of oxidation peak in voltammogram of free molecule (0 hours = 100%) ([2]; 0.5 h): 95.3% | relative value of height of oxidation peak in voltammogram of free molecule (0 hours = 100%) ([2]; 1 h): 94.3% | relative value of height of oxidation peak in voltammogram of free molecule (0 hours = 100%) ([2]; 2 h): 84.5% | change of detected value in 2 hours after preparation [2]: showed a tendency to successively decrease
